Test results as given in patent US6410485B1, “Saccharin-5-carbonyl derivatives with herbicidal effect” (BASF Aktiengesellschaft, priority 1999, dated 2002).

Key:
Format in all cases: in vivo
Glycine max (GLXMA) = assay: greenhouse test, preemergence treatment, soybean; details: 100 = no emergence or complete destruction, 0 = no damage
Source text: (§1) It was possible to show the herbicidal action of the saccharin-5-carbonyl derivatives of the formula I by means of greenhouse tests: The cultivation containers used were plastic pots containing loamy sand with approximately 3.0% humus as a substrate. The seeds of the test plants were sown separately according to species. In the case of preemergence treatment, the active compounds suspended or emulsified in water were applied directly after sowing by means of finely dispersing nozzles. The containers were lightly watered in order to promote germination and growth, and then covered with transparent plastic hoods until the plants had taken root. This covering causes uniform germination of the test plants if this is not adversely affected by the active compounds. The application rate for preemergence treatment was 0.125 or 0.0625 kg/ha of a.s. The plants were kept species-specifically at temperatures of 10-25° C. or 20-35° C. The test period extended over 2 to 4 weeks. During this time, the plants were tended, and their reaction to the individual treatments was assessed. Assessment was carried out on a scale from 0 to 100. In this case, 100 means no emergence of the plants or complete destruction at least of the above-ground parts and 0 means no damage or a normal course of growth. The plants used in the greenhouse tests were made up of the following species: [table]

[1] = tested on: Chenopodium album (CHEAL); assay: greenhouse test, preemergence treatment, lambsquarter; details: 100 = no emergence or complete destruction, 0 = no damage
Source text: as §1

[2] = tested on: digitaria sanguinalis (DIGSA); assay: greenhouse test, preemergence treatment, large crabgrass; details: 100 = no emergence or complete destruction, 0 = no damage
Source text: as §1

[3] = tested on: Echinochloa crus galli (ECHCG); assay: greenhouse test, preemergence treatment, common barnyard grass; details: 100 = no emergence or complete destruction, 0 = no damage
Source text: as §1

Setaria viridis (SETVI) = assay: greenhouse test, preemergence treatment, green foxtail; details: 100 = no emergence or complete destruction, 0 = no damage
Source text: as §1

[4] = tested on: weed grasses and broad-leaved plants; assay: greenhouse test, preemergence treatment, overall statement; details: 0.125 and 0.0625 kg/ha a.s.
Source text: as §1, with “[table]” left out

SMILES: Cc1c(C(=O)C2=C(O)C3CCC(C3)C2=O)ccc2c1C(=O)N(C)S2(=O)=O (centres unmarked) [Compound 1.1]
- damage assessment on a scale from 0 to 100 (GLXMA) (Glycine max (GLXMA); 0.0625 kg/ha of a.s.): 0
- damage assessment on a scale from 0 to 100 (GLXMA) (Glycine max (GLXMA); 0.125 kg/ha of a.s.): 0
- damage assessment on a scale from 0 to 100 (CHEAL) ([1]; 0.0625 kg/ha of a.s.): 98
- damage assessment on a scale from 0 to 100 (CHEAL) ([1]; 0.125 kg/ha of a.s.): 98
- damage assessment on a scale from 0 to 100 (DIGSA) ([2]; 0.0625 kg/ha of a.s.): 98
- damage assessment on a scale from 0 to 100 (DIGSA) ([2]; 0.125 kg/ha of a.s.): 98
- damage assessment on a scale from 0 to 100 (ECHCG) ([3]; 0.0625 kg/ha of a.s.): 98
- damage assessment on a scale from 0 to 100 (ECHCG) ([3]; 0.125 kg/ha of a.s.): 98
- damage assessment on a scale from 0 to 100 (SETVI) (Setaria viridis (SETVI); 0.0625 kg/ha of a.s.): 98
- damage assessment on a scale from 0 to 100 (SETVI) (Setaria viridis (SETVI); 0.125 kg/ha of a.s.): 100
- control of weed grasses and broad-leaved plants [4]: very well controlled
